Results reported in ChEMBL document CHEMBL1201862, “PubChem BioAssay data set” (2004).
Active and inactive are the calls of the source.

Assays:
[1] = biological target: T1, Endoribonuclease toxin MazF (Escherichia coli K-12, UniProt P0AE70); assay: activation of MazEF endoribonuclease cleavage – biochemical, fluorescence, single-stranded RNA substrate, uHTS hits, dose response (AID 588481); assay type: functional
T1 sequence (P0AE70 whole entry): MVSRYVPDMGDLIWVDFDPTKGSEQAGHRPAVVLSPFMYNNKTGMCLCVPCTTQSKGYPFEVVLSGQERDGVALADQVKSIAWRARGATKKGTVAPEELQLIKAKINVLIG

[2] = biological target: T1, Endoribonuclease toxin MazF; assay: substrate-only fluorescence increase artefacts – biochemical, single-stranded RNase substrate, counter-screen for MazEF activator project, dose response (AID 588502); assay type: functional
[3] = viability of HCT116 lacking mutant beta-catenin – cell-based, human colon tumor, dose response (AID 1045); assay type: functional;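 note: HCT116 colon tumor cells with beta catenin knocked out; cells exposed to compound for 60 hours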
Melanocortin receptor 4 = Melanocortin receptor 4 (Homo sapiens, UniProt P32245); assay type: functional, cell-based;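 note: Cell-based assay with luminescence read-out, confirmatory dose-response testing for agonist activity of biased ligands at MC4R; human U2OS cells with tagged receptor and beta-arrestin; potency of agonists that increase receptor coupling to beta-arrestin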
Chain of Melanocortin receptor 4 (P32245 whole entry): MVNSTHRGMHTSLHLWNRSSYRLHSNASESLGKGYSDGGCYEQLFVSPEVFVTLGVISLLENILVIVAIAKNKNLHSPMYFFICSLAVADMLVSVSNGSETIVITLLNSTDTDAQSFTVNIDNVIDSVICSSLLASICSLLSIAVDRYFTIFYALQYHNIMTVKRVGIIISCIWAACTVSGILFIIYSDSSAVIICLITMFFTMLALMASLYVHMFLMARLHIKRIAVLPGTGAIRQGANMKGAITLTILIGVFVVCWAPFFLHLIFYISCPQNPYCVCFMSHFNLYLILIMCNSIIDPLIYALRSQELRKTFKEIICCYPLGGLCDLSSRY

[4] = viability of PTEN-deleted HCT116 cells – cell-based, HCT116 PTEN knockout, dose response (AID 1047); assay type: functional;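 note: HCT116 colon tumor cells with PTEN knocked out; cells exposed to compound for 60 hours before readout; potency for loss of cell viability measured by luminescence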
Cytochrome P450 2C9 = Cytochrome P450 2C9 (Homo sapiens, UniProt P11712)
Chain of Cytochrome P450 2C9 (P11712 whole entry): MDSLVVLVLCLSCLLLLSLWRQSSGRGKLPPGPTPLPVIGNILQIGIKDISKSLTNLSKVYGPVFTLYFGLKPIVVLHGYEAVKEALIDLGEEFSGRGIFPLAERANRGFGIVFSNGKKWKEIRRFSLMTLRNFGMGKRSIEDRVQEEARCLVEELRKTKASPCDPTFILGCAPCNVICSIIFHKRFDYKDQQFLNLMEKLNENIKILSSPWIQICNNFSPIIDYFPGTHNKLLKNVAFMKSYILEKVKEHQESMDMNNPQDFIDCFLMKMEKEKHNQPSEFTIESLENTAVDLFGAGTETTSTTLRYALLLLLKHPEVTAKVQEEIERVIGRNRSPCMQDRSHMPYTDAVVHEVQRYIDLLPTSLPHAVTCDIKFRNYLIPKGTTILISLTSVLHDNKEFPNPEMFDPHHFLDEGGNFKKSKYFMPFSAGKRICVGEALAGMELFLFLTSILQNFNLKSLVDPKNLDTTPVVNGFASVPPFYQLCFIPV

Cytochrome P450 3A4 = Cytochrome P450 3A4 (Homo sapiens, UniProt P08684);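 note: CYP3A4 tested as one member of a cytochrome P450 panel screen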
Chain of Cytochrome P450 3A4 (P08684 whole entry): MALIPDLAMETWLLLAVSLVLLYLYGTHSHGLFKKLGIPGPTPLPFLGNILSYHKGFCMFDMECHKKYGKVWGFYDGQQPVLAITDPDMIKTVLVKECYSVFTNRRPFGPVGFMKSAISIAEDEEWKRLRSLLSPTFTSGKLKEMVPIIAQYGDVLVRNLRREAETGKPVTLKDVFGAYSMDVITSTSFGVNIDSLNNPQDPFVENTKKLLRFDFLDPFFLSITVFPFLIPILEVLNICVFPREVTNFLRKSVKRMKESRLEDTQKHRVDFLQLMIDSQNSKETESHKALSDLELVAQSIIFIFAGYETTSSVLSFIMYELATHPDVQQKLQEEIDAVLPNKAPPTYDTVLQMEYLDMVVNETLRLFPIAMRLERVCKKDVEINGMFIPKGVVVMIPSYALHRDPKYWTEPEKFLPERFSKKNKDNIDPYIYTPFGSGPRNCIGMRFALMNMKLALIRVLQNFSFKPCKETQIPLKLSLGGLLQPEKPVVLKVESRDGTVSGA

Coagulation factor XII = biological target: T2, Coagulation factor XII (Homo sapiens, UniProt P00748); assay type: functional;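 note: activated factor XIIa alpha cleaving a fluorogenic AMC peptide substrate; inhibitor potency from loss of enzyme activity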
T2 sequence (P00748 whole entry): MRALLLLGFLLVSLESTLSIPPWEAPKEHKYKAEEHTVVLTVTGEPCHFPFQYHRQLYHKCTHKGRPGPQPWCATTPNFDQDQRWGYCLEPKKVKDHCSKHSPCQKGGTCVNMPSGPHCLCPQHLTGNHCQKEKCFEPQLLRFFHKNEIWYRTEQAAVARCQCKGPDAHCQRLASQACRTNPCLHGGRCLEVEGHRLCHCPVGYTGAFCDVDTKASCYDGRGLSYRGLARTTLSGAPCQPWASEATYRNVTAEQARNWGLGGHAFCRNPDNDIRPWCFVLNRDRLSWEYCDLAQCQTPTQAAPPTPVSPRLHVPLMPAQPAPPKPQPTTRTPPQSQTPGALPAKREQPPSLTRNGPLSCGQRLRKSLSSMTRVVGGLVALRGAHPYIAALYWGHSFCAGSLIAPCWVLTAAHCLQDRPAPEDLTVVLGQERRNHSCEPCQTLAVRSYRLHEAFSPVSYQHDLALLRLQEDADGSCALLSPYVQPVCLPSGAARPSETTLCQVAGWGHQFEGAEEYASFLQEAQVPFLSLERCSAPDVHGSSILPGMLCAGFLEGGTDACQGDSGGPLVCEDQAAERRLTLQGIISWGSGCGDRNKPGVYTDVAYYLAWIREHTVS

[5] = biological target: T3, RNA-binding protein pos-1 (Caenorhabditis elegans, UniProt G5EF15); assay: disruptors of C. elegans POS-1 RNA interaction – biochemical, fluorescence polarization, dose response (AID 1964);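 note: purified POS-1 fused to maltose binding protein made in E. coli; potency of compounds blocking POS-1 binding to fluorescent RNA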
T3 sequence (G5EF15 whole entry): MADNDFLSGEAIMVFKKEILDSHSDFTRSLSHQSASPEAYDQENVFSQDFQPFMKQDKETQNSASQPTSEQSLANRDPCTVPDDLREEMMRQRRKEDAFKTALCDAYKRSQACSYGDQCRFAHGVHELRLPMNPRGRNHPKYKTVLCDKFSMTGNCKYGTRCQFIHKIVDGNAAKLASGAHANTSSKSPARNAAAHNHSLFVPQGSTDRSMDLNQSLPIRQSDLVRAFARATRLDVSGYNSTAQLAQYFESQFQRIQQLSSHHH

[6] = biological target: Eukaryotic translation initiation factor 4E (Mus musculus, UniProt P63073); assay: blockers of eIF4G binding by eIF4E – biochemical, TR-FRET, dose response (AID 855); assay type: functional;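 note: potency for disrupting eIF4E binding to eIF4GI seen as loss of FRET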
Chain of Eukaryotic translation initiation factor 4E (P63073 whole entry): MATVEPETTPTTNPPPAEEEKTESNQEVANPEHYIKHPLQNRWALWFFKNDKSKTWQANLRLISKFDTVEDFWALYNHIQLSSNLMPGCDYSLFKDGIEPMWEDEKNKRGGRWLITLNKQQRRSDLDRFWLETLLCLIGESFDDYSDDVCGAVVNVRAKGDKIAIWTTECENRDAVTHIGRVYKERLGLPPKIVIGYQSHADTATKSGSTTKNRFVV

[7] = biological target: T4, Zinc finger protein mex-5 (Caenorhabditis elegans, UniProt Q9XUB2); assay: potency of MEX-5 RNA-binding blockers – biochemical, C. elegans, fluorescence polarization, dose response (AID 1960)
T4 sequence (Q9XUB2 whole entry): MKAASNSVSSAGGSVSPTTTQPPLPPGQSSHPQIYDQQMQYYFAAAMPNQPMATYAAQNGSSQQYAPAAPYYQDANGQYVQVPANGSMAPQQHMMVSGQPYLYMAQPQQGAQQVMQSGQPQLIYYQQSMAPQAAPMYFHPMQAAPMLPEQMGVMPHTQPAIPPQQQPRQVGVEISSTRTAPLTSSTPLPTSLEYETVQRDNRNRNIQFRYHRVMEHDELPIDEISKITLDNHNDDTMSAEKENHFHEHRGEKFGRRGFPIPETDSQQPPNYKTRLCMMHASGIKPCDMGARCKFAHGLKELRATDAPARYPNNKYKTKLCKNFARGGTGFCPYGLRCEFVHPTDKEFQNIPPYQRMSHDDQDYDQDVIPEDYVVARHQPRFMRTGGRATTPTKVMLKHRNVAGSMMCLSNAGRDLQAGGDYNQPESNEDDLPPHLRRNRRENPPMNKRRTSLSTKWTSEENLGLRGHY

[8] = Luminescence Cell-Based Dose Retest to Confirm Inhibitors of Cancer Stem Cells. [Related pubchem assays (depositor defined):AID2717, AID2721]; assay type: functional; details: Homo sapiens
Protein Wnt-3a = Protein Wnt-3a (Mus musculus, UniProt P27467); assay: antagonism of Wnt3a pathway luciferase reporter – Wnt-LIGHT cells, luminescence, selectivity assay for Gli-SUFU antagonist project, dose response (AID 651570); assay type: functional; details: read-out: IC50_Mean;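 note: Wnt-LIGHT reporter cells stimulated with conditioned medium from Wnt3a-producing cells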
Chain of Protein Wnt-3a (P27467 whole entry): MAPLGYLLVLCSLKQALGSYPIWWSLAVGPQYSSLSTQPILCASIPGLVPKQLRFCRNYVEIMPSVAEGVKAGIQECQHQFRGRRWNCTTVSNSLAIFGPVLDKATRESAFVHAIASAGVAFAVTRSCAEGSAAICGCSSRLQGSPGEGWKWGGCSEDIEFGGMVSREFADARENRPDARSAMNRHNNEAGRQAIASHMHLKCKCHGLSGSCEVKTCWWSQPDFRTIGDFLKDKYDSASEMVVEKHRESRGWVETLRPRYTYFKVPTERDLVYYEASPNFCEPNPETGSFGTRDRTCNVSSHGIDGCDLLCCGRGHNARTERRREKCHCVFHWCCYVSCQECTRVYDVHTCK

Cytochrome P450 1A2 = biological target: T5, Cytochrome P450 1A2 (Homo sapiens, UniProt P05177);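 note: PubChem cytochrome P450 panel assay, CYP1A2 panel member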
T5 sequence (P05177 whole entry): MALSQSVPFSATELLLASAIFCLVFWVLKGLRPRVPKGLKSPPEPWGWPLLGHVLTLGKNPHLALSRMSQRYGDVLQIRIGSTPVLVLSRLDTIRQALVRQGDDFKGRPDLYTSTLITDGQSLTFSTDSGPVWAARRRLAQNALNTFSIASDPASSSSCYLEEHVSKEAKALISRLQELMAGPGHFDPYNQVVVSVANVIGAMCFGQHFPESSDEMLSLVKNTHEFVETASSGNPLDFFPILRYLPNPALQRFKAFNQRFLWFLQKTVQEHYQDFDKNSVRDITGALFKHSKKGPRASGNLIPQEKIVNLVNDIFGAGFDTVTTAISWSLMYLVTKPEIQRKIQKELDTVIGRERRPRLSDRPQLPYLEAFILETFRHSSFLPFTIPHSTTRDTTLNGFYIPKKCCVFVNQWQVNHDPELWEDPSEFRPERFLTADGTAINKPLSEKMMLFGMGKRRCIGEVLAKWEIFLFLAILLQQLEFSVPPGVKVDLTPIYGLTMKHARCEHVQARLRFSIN

[9] = biological target: Glyceraldehyde-3-phosphate dehydrogenase (Homo sapiens, UniProt P04406)
Chain of Glyceraldehyde-3-phosphate dehydrogenase (P04406 whole entry): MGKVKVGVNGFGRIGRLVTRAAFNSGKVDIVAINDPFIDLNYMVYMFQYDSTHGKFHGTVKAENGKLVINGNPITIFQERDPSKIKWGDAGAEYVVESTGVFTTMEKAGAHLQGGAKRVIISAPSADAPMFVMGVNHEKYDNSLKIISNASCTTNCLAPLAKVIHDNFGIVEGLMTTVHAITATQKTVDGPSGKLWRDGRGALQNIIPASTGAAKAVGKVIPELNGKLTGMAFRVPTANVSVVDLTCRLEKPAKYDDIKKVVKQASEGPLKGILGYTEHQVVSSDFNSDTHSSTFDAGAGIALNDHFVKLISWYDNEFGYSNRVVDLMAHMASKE

[10] = biological target: T6, Alkaline phosphatase, tissue-nonspecific isozyme (Homo sapiens, UniProt P05186); assay: potency against alkaline phosphatase TNAP – biochemical, luminescent, dose response, SAR follow-up (AID 1056)
T6 sequence (P05186 whole entry): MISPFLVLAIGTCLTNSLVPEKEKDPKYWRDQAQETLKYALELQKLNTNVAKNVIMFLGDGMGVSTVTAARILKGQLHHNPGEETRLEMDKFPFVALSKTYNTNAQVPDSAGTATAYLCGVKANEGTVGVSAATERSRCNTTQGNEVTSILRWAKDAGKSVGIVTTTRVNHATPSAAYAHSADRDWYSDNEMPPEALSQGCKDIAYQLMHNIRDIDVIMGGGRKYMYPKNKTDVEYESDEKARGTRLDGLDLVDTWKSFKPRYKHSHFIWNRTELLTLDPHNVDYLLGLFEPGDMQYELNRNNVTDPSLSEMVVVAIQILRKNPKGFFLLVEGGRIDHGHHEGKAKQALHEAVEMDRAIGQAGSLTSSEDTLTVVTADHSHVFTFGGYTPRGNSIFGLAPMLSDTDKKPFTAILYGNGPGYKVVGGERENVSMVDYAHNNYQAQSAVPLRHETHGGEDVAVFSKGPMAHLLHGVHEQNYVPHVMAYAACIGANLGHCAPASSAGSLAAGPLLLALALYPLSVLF

Protein skinhead-1 = biological target: T7, Protein skinhead-1 (Caenorhabditis elegans, UniProt P34707); assay type: functional
T7 sequence (P34707 whole entry): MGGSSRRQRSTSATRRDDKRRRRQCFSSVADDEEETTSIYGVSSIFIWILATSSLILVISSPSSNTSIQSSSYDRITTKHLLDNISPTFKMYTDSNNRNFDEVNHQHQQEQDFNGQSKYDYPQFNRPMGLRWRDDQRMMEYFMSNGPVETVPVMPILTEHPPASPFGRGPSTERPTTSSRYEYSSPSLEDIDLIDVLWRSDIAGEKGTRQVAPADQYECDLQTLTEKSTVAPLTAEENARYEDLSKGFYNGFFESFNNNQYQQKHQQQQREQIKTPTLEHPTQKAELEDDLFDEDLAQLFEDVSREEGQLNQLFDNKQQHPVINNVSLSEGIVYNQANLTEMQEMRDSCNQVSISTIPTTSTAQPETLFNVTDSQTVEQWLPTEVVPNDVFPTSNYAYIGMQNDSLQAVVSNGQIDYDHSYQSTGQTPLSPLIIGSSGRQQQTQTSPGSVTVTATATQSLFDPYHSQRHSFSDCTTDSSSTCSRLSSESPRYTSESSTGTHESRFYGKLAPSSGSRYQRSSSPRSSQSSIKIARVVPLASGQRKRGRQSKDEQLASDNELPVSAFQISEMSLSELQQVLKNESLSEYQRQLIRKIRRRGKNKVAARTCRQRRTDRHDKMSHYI

Cytochrome P450 2D6 = Cytochrome P450 2D6 (Homo sapiens, UniProt P10635);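 note: CYP2D6 member of a cytochrome P450 panel assay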
Chain of Cytochrome P450 2D6 (P10635 whole entry): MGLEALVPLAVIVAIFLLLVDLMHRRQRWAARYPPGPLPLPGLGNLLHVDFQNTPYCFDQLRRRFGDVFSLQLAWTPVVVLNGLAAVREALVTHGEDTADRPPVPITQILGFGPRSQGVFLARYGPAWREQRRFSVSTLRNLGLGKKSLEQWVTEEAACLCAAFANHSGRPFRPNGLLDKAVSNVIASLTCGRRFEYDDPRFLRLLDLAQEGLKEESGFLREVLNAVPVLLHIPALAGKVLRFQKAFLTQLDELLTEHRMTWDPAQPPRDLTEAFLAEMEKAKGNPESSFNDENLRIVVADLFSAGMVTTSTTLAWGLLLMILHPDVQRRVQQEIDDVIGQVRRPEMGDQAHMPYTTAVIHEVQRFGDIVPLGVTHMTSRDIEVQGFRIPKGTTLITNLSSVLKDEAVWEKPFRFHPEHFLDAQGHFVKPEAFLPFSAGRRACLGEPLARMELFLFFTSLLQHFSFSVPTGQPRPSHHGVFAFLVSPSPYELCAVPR

[11] = biological target: T8, Heat shock factor protein 1 (Mus musculus, UniProt P38532); assay: decrease of HSF1-responsive luciferase luminescence – cell-based, NIH3T3, dose retest, confirmation (AID 2382); assay type: functional;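 note: NIH3T3 fibroblasts with HSF1-driven luciferase reporter stressed by proteasome inhibitor MG132; luminescence from HSF1-driven luciferase expression after 8 hours of MG132 stress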
T8 sequence (P38532 whole entry): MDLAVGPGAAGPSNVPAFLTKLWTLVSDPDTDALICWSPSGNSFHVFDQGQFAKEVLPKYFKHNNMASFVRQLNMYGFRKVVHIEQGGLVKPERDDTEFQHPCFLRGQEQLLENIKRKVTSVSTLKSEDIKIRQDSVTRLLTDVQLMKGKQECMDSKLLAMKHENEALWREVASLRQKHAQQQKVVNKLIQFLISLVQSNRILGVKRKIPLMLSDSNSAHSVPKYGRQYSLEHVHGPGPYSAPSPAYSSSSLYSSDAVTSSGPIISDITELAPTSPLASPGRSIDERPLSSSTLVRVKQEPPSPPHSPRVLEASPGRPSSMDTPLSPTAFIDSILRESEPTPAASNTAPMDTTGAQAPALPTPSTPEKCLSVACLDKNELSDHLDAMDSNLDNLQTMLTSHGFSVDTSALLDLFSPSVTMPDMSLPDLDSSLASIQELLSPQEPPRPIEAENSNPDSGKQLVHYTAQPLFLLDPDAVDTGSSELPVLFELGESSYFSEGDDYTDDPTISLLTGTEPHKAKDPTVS

H9c2 = assay: cells; assay type: functional, cell-based; details: Rattus norvegicus, H9c2, Myocardium

## CCN(CC)S(=O)(=O)c1ccc(Cl)c(NC(=O)c2cc(Cl)ccc2Cl)c1
[1]
  EC50: > 99 µM (inactive)
[2]
  EC50: > 99 µM (inactive)

## Cc1ccc(-c2nnc(-c3ccc(NC(=O)Cc4cccs4)cc3)o2)cc1
[3]
  EC50: 4.87 µM (active)
Melanocortin receptor 4
  EC50: > 89.2 µM (inactive)
[4]
  EC50: 5.97 µM (active)

## CC(=O)CC(=O)[C@@]1(O)CC[C@@H]2[C@@H]3C=C(C)C4=CC(=O)CC[C@@H]4[C@H]3CC[C@]21C
Cytochrome P450 2C9
  AC50: 12.6 µM (inconclusive)
Cytochrome P450 3A4
  AC50: inconclusive

## O=C(c1ccc(Cl)cc1)N1CCN(C(=O)c2ccco2)CC1
Cytochrome P450 3A4
  AC50: inconclusive

## COc1ccc(C2c3cc(OC)c(OC)cc3CCN2S(C)(=O)=O)cc1OC (configuration not stated)
Coagulation factor XII
  IC50: > 50 µM (inactive)
[5]
  EC50: > 300 µM (not active)
[6]
  IC50: 50 µM (inactive)
[7]
  EC50: > 300 µM (not active)

## C/C=C1\C(=O)C[C@@H]2[C@@H]3CCC4=CC(=O)CC[C@@]4(C)[C@H]3CC[C@@]12C
Cytochrome P450 2C9
  AC50: 39.8 µM (inconclusive)
Cytochrome P450 3A4
  AC50: inconclusive

## CCOC(=O)Cc1csc(NC(=O)c2sc3nc4cc(C)ccc4cc3c2N)n1
Melanocortin receptor 4
  EC50: > 89.2 µM (inactive)
[5]
  EC50: 27.2 µM (inconclusive)
[7]
  EC50: 1.62 µM (inconclusive)

## O=S(=O)(NCc1ccncc1)c1ccc(S(=O)(=O)NCC2CCCO2)cc1 (configuration not stated)
[8]
  AC50: 0.973 µM (active)
Protein Wnt-3a
  IC50: 7.09 µM (active)

## CC(=O)c1cc2c(C)c(C(=O)c3ccccc3)oc2cc1O
[1]
  EC50: > 99 µM (inactive)
[2]
  EC50: > 99 µM (inactive)

## COCCNc1cc(-c2ccccc2C(F)(F)F)ncn1
Cytochrome P450 1A2
  AC50: 15.8 µM (inconclusive)
Cytochrome P450 3A4
  AC50: inconclusive

## CCOC(=O)c1cc(-c2ccc(Cl)cc2)n[nH]1
[9]
  IC50: > 100 µM (not active)
[10]
  IC50: 2.35 µM (active)

## COc1ccccc1C(=O)Nc1ccc2ccccc2c1
Protein skinhead-1
  IC50: 42.7 µM (active)
[9]
  IC50: > 10 µM (inconclusive)
[10]
  IC50: > 10 µM (inactive)

## Cc1ccc(-c2cc(C(=O)O)[nH]n2)c(C)c1
[9]
  IC50: > 100 µM (not active)
[10]
  IC50: 3.34 µM (active)

## CCOC(=O)c1ccc2c(c1)nc(C1CCN(S(=O)(=O)c3cccs3)CC1)n2CC
Coagulation factor XII
  IC50: > 50 µM (inactive)

## NC1=Nc2ccccc2Oc2ccccc21
Cytochrome P450 2D6
  AC50: 20 µM (inconclusive)
Cytochrome P450 3A4
  AC50: inconclusive

## O=S(=O)(Nc1ccc2ncccc2c1)c1cc(Cl)ccc1Cl
[9]
  IC50: > 100 µM (not active)
[10]
  IC50: > 100 µM (inactive)

## O=C(O)CC1(CC(=O)NCc2ccncc2)CCCCC1
Coagulation factor XII
  IC50: > 50 µM (inactive)

## Cc1cc(O)c(/C=N/c2ccc(N3CCOCC3)cc2)c(C)c1Cl
[1]
  EC50: 53.5 µM (inactive)
[11]
  EC50: > 195 µM (not active)
[2]
  EC50: > 99 µM (inactive)
H9c2
  IC50: > 79 µM (inactive)

## CC(=O)Nc1cc(-c2ccccc2N(C)C)cn2c(-c3ccccc3)cnc12
Melanocortin receptor 4
  EC50: > 89.2 µM (inactive)

## Cc1cc(C)n(/N=C/c2ccccc2)c(=O)c1C#N
Coagulation factor XII
  IC50: > 50 µM (inactive)
